From US7205304B2, “Sulfonyl-Derivatives as novel inhibitors of histone deacetylase” (Janssen Pharmaceutica N.V., priority 2002, dated 2007)
Values after ≈ are worked out from the molar mass of the structure shown.

Tests used:
[1] = system: A2780 ovarian carcinoma cells; assay: Antiproliferative activity on A2780 cells (MTT); assay type: cell-based, human; details: Homo sapiens, A2780, 96 h, four days of incubation, read-out: Cellular activity pIC50 (converted)
Protocol: Cellular activity of the compounds of formula (I) was determined on A2780 tumour cells using a colorimetric assay for cell toxicity or survival (Mosmann Tim, Journal of Immunological Methods 65: 55–63, 1983)(see example C.2).
All compounds tested were dissolved in DMSO and further dilutions were made in culture medium. Final DMSO concentrations never exceeded 0.1% (v/v) in cell proliferation assays. Controls contained A2780 cells and DMSO without compound and blanks contained DMSO but no cells. MTT was dissolved at 5 mg/ml in PBS. A glycine buffer comprised of 0.1 M glycine and 0.1 M NaCl buffered to pH 10.5 with NaOH (1 N) was prepared (all reagents were from Merck).
The human A2780 ovarian carcinoma cells (a kind gift from Dr. T. C. Hamilton [Fox Chase Cancer Centre, Pennsylvania, USA]) were cultured in RPMI 1640 medium supplemented with 2 mM L-glutamine, 50 μg/ml gentamicin and 10% fetal calf serum. Cells were routinely kept as monolayer cultures at 37° C. in a humidified 5% CO2 atmosphere. Cells were passaged once a week using a trypsin/EDTA solution at a split ratio of 1:40. All media and supplements were obtained from Life Technologies. Cells were free of mycoplasma contamination as determined using the Gen-Probe Mycoplasma Tissue Culture kit (supplier: BioMérieux).
Cells were seeded in NUNC™ 96-well culture plates (Supplier: Life Technologies) and allowed to adhere to the plastic overnight. Densities used for plating were 1500 cells per well in a total volume of 200 μl medium. After cell adhesion to the plates, medium was changed and drugs and/or solvents were added to a final volume of 200 μl. Following four days of incubation, medium was replaced by 200 μl fresh medium and cell density and viability was assessed using an MTT-based assay. To each well, 25 μl MTT solution was added and the cells were further incubated for 2 hours at 37° C. The medium was then carefully aspirated and the blue MTT-formazan product was solubilized by addition of 25 μl glycine buffer followed by 100 μl of DMSO. […] Within an experiment, the results for each experimental condition are the mean of 3 replicate wells. For initial screening purposes, compounds were tested at a single fixed concentration of 10^−6 M. For active compounds, the experiments were repeated to establish full concentration-response curves. For each experiment, controls (containing no drug) and a blank incubation (containing no cells or drugs) were run in parallel. The blank value was subtracted from all control and sample values. For each sample, the mean value for cell growth (in absorbance units) was expressed as a percentage of the mean value for cell growth of the control. […] Herein the effects of test compounds are expressed as pIC50 (the negative log value of the IC50-value).

[2] = Kinetic solubility in aqueous media (nephelometry); assay type: physicochemical; details: phosphate citrate buffer, pH 7.4, aqueous buffer, kinetic from dmso stock, phosphate citrate buffer pH 7.4, turbidity of three dilution steps; read-out: Solubility Score
Protocol: Kinetic solubility in aqueous media measures the ability of a compound to stay in aqueous solution upon dilution (see example C.3).
DMSO-stock solutions are diluted with a single aqueous buffer solvent in 3 consecutive steps. For every dilution turbidity is measured with a nephelometer.
In the first dilution step, 10 μl of a concentrated stock-solution of the active compound, solubilized in DMSO (5 mM), was added to 100 μl phosphate citrate buffer pH 7.4 and mixed. In the second dilution step, an aliquot (20 μl) of the first dilution step was further dispensed in 100 μl phosphate citrate buffer pH 7.4 and mixed. Finally, in the third dilution step, a sample (20 μl) of the second dilution step was further diluted in 100 μl phosphate citrate buffer pH 7.4 and mixed. All dilutions were performed in 96-well plates. Immediately after the last dilution step the turbidity of the three consecutive dilution steps were measured with a nephelometer. Dilution was done in triplicate for each compound to exclude occasional errors. Based on the turbidity measurements a ranking is performed into 3 classes. Compounds with high solubility obtained a score of 3 and for this compounds the first dilution is clear. Compounds with medium solubility obtained a score of 2. For these compounds the first dilution is unclear and the second dilution is clear. […] The solubility of 112 compounds was measured.

[3] = target: histone deacetylase (HeLa nuclear extracts); assay: In vitro assay for inhibition of histone deacetylase; assay type: biochemical; details: [3H]acetylated histone H4 peptide substrate
Protocol: The in vitro assay for inhibition of histone deacetylase (see example C.1) measures the inhibition of HDAC enzymatic activity obtained with the compounds of formula (I).
HeLa nuclear extracts (supplier: Biomol) were incubated at 60 μg/ml with 2×10^−8 M of radiolabeled peptide substrate. As a substrate for measuring HDAC activity a synthetic peptide, i.e. the amino acids 14–21 of histone H4, was used. The substrate is biotinylated at the NH2-terminal part with a 6-aminohexanoic acid spacer, and is protected at the COOH-terminal part by an amide group and specifically [^3H]acetylated at lysine 16. The substrate, biotin-(6-aminohexanoic)Gly-Ala-([^3H]-acetyl-Lys-Arg-His-Arg-Lys-Val-NH2), was added in a buffer containing 25 mM Hepes, 1 M sucrose, 0.1 mg/ml BSA and 0.01% Triton X-100 at pH 7.4. After 30 min the deacetylation reaction was terminated by the addition of HCl and acetic acid. (final concentration 0.035 mM and 3.8 mM respectively). After stopping the reaction, the free ^3H-acetate was extracted with ethylacetate. After mixing and centrifugation, the radioactivity in an aliquot of the upper (organic) phase was counted in a β-counter.
For each experiment, controls (containing HeLa nuclear extract and DMSO without compound), a blank incubation (containing DMSO but no HeLa nuclear extract or compound) and samples (containing compound dissolved in DMSO and HeLa nuclear extract) were run in parallel. In first instance, compounds were tested at a concentration of 10^−5M. […] In each test the blank value was substracted from both the control and the sample values. The control sample represented 100% of substrate deactylation. For each sample the radioactivity was expressed as a percentage of the mean value of the controls. […] Herein the effects of test compounds are expressed as pIC50 (the negative log value of the IC50-value).

| Structure (SMILES) | IC50 [1] | solubility [2] | Enzyme activity pIC50 [3] |
| --- | --- | --- | --- |
| Nc1ccccc1NC(=O)c1ccc(N2CCN(S(=O)(=O)c3ccc4ccccc4c3)CC2)cc1 [Compound 17] | 0.764 µM | < 75.8 µM | <5 |
| NCCNC(=O)c1ccc(N2CCN(S(=O)(=O)c3ccc4ccccc4c3)CC2)cc1 [Compound 18] | 4.08 µM | < 75.8 µM | <5 |
| O=C(CS)Nc1ccc(N2CCN(S(=O)(=O)c3ccc4ccccc4c3)CC2)cc1 [Compound 19] | > 10 µM | < 75.8 µM | <5 |
| CS(=O)(=O)c1ccccc1S(=O)(=O)N1CCN(c2ccc(C(=O)NO)cc2)CC1 [Compound 60] | 4.53 µM | > 454 µM | 6.247 |
| O=C(NO)c1ccc(N2CCN(S(=O)(=O)c3cccc(F)c3)CC2)cc1 [Compound 61] | 2.79 µM | 75.8 to 454 µM (≈ 28.8 to 172 µg/mL) | 6.255 |
| O=C(NO)c1ccc(N2CCN(S(=O)(=O)CCc3cccc4ccccc34)CC2)cc1 [Compound 62] | 0.384 µM | < 75.8 µM | 5.409 |
| CCCc1ccc(S(=O)(=O)N2CCN(c3ccc(C(=O)NO)cc3)CC2)cc1 [Compound 63] | 1.86 µM | < 75.8 µM | 6.215 |
| Cc1noc(C)c1S(=O)(=O)N1CCN(c2ccc(C(=O)NO)cc2)CC1 [Compound 64] | 8.91 µM | > 454 µM | 5.753 |
| Cn1cnc(S(=O)(=O)N2CCN(c3ccc(C(=O)NO)cc3)CC2)c1 [Compound 65] | > 10 µM | > 454 µM | 5.775 |
| O=C(NO)c1ccc(N2CCN(S(=O)(=O)c3ccc(Cl)s3)CC2)cc1 [Compound 66] | 1.33 µM | < 75.8 µM | 6.197 |
| Cc1c(C)c(S(=O)(=O)N2CCN(c3ccc(C(=O)NO)cc3)CC2)c(C)c2c1OC(C)(C)C2 [Compound 67] | 0.855 µM | < 75.8 µM | 5.177 |
| O=C(NO)c1ccc(N2CCN(S(=O)(=O)c3ccc(-c4ccccn4)s3)CC2)cc1 [Compound 68] | 1.23 µM | < 75.8 µM | 6.908 |
| O=C(NO)c1ccc(N2CCN(S(=O)(=O)c3cc(S(=O)(=O)c4ccccc4)cs3)CC2)cc1 [Compound 69] | > 10 µM | > 454 µM | 5.978 |
| O=C(NO)c1ccc(N2CCN(S(=O)(=O)c3cccs3)CC2)cc1 [Compound 70] | 4.06 µM | > 454 µM | 5.914 |
| O=C(NO)c1ccc(N2CCN(S(=O)(=O)c3cccc4cccnc34)CC2)cc1 [Compound 71] | 2.47 µM | > 454 µM | 6.449 |
| CN(C)c1cccc2c(S(=O)(=O)N3CCN(c4ccc(C(=O)NO)cc4)CC3)cccc12 [Compound 72] | 0.942 µM | < 75.8 µM | 6.346 |
| O=C(NO)c1ccc(N2CCN(S(=O)(=O)Cc3ccccc3)CC2)cc1 [Compound 73] | 3.96 µM | < 75.8 µM | 6.212 |
| O=C(NO)c1ccc(N2CCN(S(=O)(=O)c3ccccc3C(F)(F)F)CC2)cc1 [Compound 74] | 2.61 µM | 75.8 to 454 µM (≈ 32.6 to 195 µg/mL) | 5.841 |
| O=C(NO)c1ccc(N2CCN(S(=O)(=O)c3ccc(Cl)cc3)CC2)cc1 [Compound 76] | 1.36 µM | < 75.8 µM | 6.227 |
| O=C(NO)c1ccc(N2CCN(S(=O)(=O)c3ccc(Br)cc3)CC2)cc1 [Compound 78] | 1.25 µM | 75.8 to 454 µM (≈ 33.4 to 200 µg/mL) | 6.306 |
| Cc1ccc(S(=O)(=O)N2CCN(c3ccc(C(=O)NO)cc3)CC2)cc1 [Compound 79] | 4.29 µM | < 75.8 µM | 6.238 |
| O=C(NO)c1ccc(N2CCN(S(=O)(=O)c3ccc(Cl)c(Cl)c3)CC2)cc1 [Compound 80] | 1.23 µM | < 75.8 µM | 5.961 |
| O=C(NO)c1ccc(N2CCN(S(=O)(=O)c3cccc4ccccc34)CC2)cc1 [Compound 81] | 1.3 µM | < 75.8 µM | 6.873 |
| O=C(NO)c1ccc(N2CCN(S(=O)(=O)c3ccc(Oc4ccccc4)cc3)CC2)cc1 [Compound 82] | 1.08 µM | > 454 µM | 5.821 |
| O=C(NO)c1ccc(N2CCN(S(=O)(=O)c3cccc(-c4ccccc4)c3)CC2)cc1 [Compound 83] | 1.3 µM | < 75.8 µM | 6.157 |
| O=C(NO)c1ccc(CN2CCN(S(=O)(=O)c3ccc4ccccc4c3)CC2)cc1 [Compound 88] | 2.84 µM | > 454 µM | 6.481 |
| O=C(NO)c1cnc(N2CCN(S(=O)(=O)c3cccs3)CC2)nc1 [Compound 90] | 1.11 µM | > 454 µM | 7.467 |
